Measured values as given in PubChem BioAssay AID1259411 (Chemical Carcinogenesis Research Information System (CCRIS), 2018).
Activity calls are given as the source filed them. How the calls were made is not given here.

Tested on: rodent carcinogenicity bioassays, tumor incidence
Test: CCRIS carcinogenicity studies
Procedure, shortened: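 Archive of carcinogenicity, mutagenicity, tumor promotion and tumor inhibition results drawn from journals, NCI reports and other sources, expert-reviewed; covers 1985-2011 and is no longer updated.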

[1] = Species: MOUSE, Strain/Sex: B6C3F1/FEMALE, Route: ORAL, Dose: 0, 2500, 5000 PPM IN DIET, Dose: 0, 2500, 5000 PPM IN DIET
[2] = Species: MOUSE, Strain/Sex: B6C3F1/MALE, Route: ORAL, Dose: 0, 2500, 5000 PPM IN DIET, Dose: 0, 2500, 5000 PPM IN DIET

With `O=C(c1ccccc1)C(O)c1ccccc1` (centres undefined) as the molecule, how does the carcinogen call [1] read?
Its carcinogen call is “inactive; negative”.

What about the carcinogen call [2] of the same molecule?
Its carcinogen call is “inactive; negative”.

What about the carcinogen call (Species: RAT, Strain/Sex: F344/FEMALE, Route: ORAL, Dose: 0, 250, 500 PPM IN DIET, Dose: 0, 250, 500 PPM IN DIET) of the same molecule?
Its carcinogen call is “inactive; negative”.

What about the carcinogen call (Species: RAT, Strain/Sex: F344/MALE, Route: ORAL, Dose: 0, 125, 250 PPM IN DIET, Dose: 0, 125, 250 PPM IN DIET) of the same molecule?
The carcinogen call was “inactive; negative”.

Which carcinogen call [1] does the source give for `Oc1ccccc1` here?
The carcinogen call was “inactive; negative”.

What about the carcinogen call [2] of the same molecule?
Its carcinogen call is “inactive; negative”.

What about the carcinogen call (Species: RAT, Strain/Sex: F344/FEMALE, Route: ORAL, Dose: 0, 2500, 5000 PPM IN DIET, Dose: 0, 2500, 5000 PPM IN DIET) of the same molecule?
The carcinogen call was “inactive; negative”.

What about the carcinogen call (Species: RAT, Strain/Sex: F344/MALE, Route: ORAL, Dose: 0, 2500, 5000 PPM IN DIET, Dose: 0, 2500, 5000 PPM IN DIET) of the same molecule?
The carcinogen call was “inactive; negative”.

With `CCN(CC)C(=O)Nc1ccc(OCC(O)CNC(C)(C)C)c(C(C)=O)c1` (centres undefined) as the molecule, how does the carcinogen call (Species: MOUSE, Strain/Sex: CD-1/FEMALE, Route: ORAL, Dose: 0, 100, 300, 900 MG/KG IN DIET FOR DURATION OF STUDY (STUDY DURATION: 2 YR), Dose: 0, 100, 300, 900 MG/KG IN DIET FOR DURATION OF STUDY (STUDY DURATION: 2 YR)) read?
Its carcinogen call is “inactive; negative”.

And the carcinogen call (Species: MOUSE, Strain/Sex: CD-1/MALE, Route: ORAL, Dose: 0, 100, 300, 900 MG/KG IN DIET FOR DURATION OF STUDY (STUDY DURATION: 2 YR), Dose: 0, 100, 300, 900 MG/KG IN DIET FOR DURATION OF STUDY (STUDY DURATION: 2 YR))?
Its carcinogen call is “inactive; negative”.

And the carcinogen call (Species: RAT, Strain/Sex: SPRAGUE-DAWLEY/FEMALE, Route: ORAL, Dose: 0, 100, 300, 900 MG/KG IN DIET FOR 316 D THEN 0, 30, 100, 300 MG/KG FOR DURATION OF STUDY (STUDY DURATION: 2 YR), Dose: 0, 100, 300, 900 MG/KG IN DIET FOR 316 D THEN 0, 30, 100, 300 MG/KG FOR DURATION OF STUDY (STUDY DURATION: 2 YR))?
Its carcinogen call is “inactive; negative”.

What about the carcinogen call (Species: RAT, Strain/Sex: SPRAGUE-DAWLEY/MALE, Route: ORAL, Dose: 0, 100, 300, 900 MG/KG IN DIET FOR 316 D THEN 0, 30, 100, 300 MG/KG FOR DURATION OF STUDY (STUDY DURATION: 2 YR), Dose: 0, 100, 300, 900 MG/KG IN DIET FOR 316 D THEN 0, 30, 100, 300 MG/KG FOR DURATION OF STUDY (STUDY DURATION: 2 YR)) of the same molecule?
The carcinogen call was “inactive; negative”.

Which carcinogen call (Species: MOUSE, Strain/Sex: CD-1/FEMALE, Route: INTRAPERITONEAL, Dose: 0, 175 NMOL (TOTAL DOSE) ADMINISTERED AS 1/7 OF DOSE WITHIN 24 HR AFTER BIRTH, 2/7 OF DOSE AT 8 D OLD, 4/7 OF DOSE AT 15, Tumor Site: Type of Lesion: LUNG: TUMOR) does the source give for `O[C@H]1[C@@H]2O[C@@H]2c2c(ccc3cc4ccc5ccccc5c4nc23)[C@@H]1O` here?
Its carcinogen call is “active; positive”.

What about the carcinogen call (Species: MOUSE, Strain/Sex: CD-1/MALE, Route: INTRAPERITONEAL, Dose: 0, 175 NMOL (TOTAL DOSE) ADMINISTERED AS 1/7 OF DOSE WITHIN 24 HR AFTER BIRTH, 2/7 OF DOSE AT 8 D OLD, 4/7 OF DOSE AT 15, Tumor Site: Type of Lesion: LIVER: TUMOR) of the same molecule?
Its carcinogen call is “active; positive”.

`C#C[C@]1(O)CC[C@H]2[C@@H]3CCC4=C(CCC(=O)C4)[C@H]3CC[C@@]21C` was tested. Which carcinogen call (Species: MOUSE, Route: ORAL, Tumor Site: Type of Lesion: MAMMARY GLAND, PITUITARY GLAND) did it give?
The carcinogen call was “active; positive”.

What about the carcinogen call (Species: RAT, Route: ORAL, Tumor Site: Type of Lesion: LIVER, MAMMARY GLAND, PITUITARY GLAND, Tumor Site: Type of Lesion: LIVER, MAMMARY GLAND, PITUITARY GLAND) of the same molecule?
Its carcinogen call is “active; positive”.

`Clc1cc2c(c(Cl)c1Cl)Oc1cc(Cl)c(Cl)c(Cl)c1O2` was tested. Which carcinogen call (Species: MOUSE, Strain/Sex: B6C3F1/FEMALE, Route: GAVAGE, Dose: 0, 2.5, 5.0, 10.0 UG/KG/WK (9:1 CORN OIL-ACETONE, 2 D/WK) FOR 104 WK (STUDY DURATION: 105-108 WK), Dose: 0, 2.5, 5.0, 10.0 UG/KG/WK (9:1 CORN OIL-ACETONE, 2 D/WK) FOR 104 WK (STUDY DURATION: 105-108 WK), Tumor Site: Type of Lesion: LIVER: HEPATOCELLULAR ADENOMA OR CARCINOMA) did it give?
The carcinogen call was “active; positive”.

And the carcinogen call (Species: MOUSE, Strain/Sex: B6C3F1/MALE, Route: GAVAGE, Dose: 0, 1.25, 2.5, 5 UG/KG/WK (9:1 CORN OIL-ACETONE, 2 D/WK) FOR 104 WK (STUDY DURATION: 105-108 WK), Dose: 0, 1.25, 2.5, 5 UG/KG/WK (9:1 CORN OIL-ACETONE, 2 D/WK) FOR 104 WK (STUDY DURATION: 105-108 WK), Tumor Site: Type of Lesion: LIVER: HEPATOCELLULAR ADENOMA, CARCINOMA)?
Its carcinogen call is “active; positive”.

And the carcinogen call (Species: MOUSE, Strain/Sex: SWISS/FEMALE, Route: DERMAL, Dose: 0, 0.01 UG (SUSPENDED IN 0.1 ML ACETONE APPLIED 3 DAYS/WK))?
Its carcinogen call is “inactive; negative”.

And the carcinogen call (Species: MOUSE, Strain/Sex: SWISS/MALE, Route: DERMAL, Dose: 0, 0.01 UG (SUSPENDED IN 0.1 ML ACETONE APPLIED 3 DAYS/WK))?
Its carcinogen call is “inactive; negative”.

What about the carcinogen call (Species: RAT, Strain/Sex: OSBORNE-MENDEL/FEMALE, Route: GAVAGE, Dose: 0, 1.25, 2.5, 5 UG/KG/WK (9:1 CORN OIL-ACETONE, 2 D/WK) FOR 104 WK (STUDY DURATION: 105-108 WK), Dose: 0, 1.25, 2.5, 5 UG/KG/WK (9:1 CORN OIL-ACETONE, 2 D/WK) FOR 104 WK (STUDY DURATION: 105-108 WK), Tumor Site: Type of Lesion: LIVER: NEOPLASTIC NODULE, HEPATOCELLULAR CARCINOMA) of the same molecule?
Its carcinogen call is “active; positive”.

And the carcinogen call (Species: RAT, Strain/Sex: OSBORNE-MENDEL/MALE, Route: GAVAGE, Dose: 0, 1.25, 2.5, 5 UG/KG/WK (9:1 CORN OIL-ACETONE, 2 D/WK) FOR 104 WK (STUDY DURATION: 105-108 WK), Dose: 0, 1.25, 2.5, 5 UG/KG/WK (9:1 CORN OIL-ACETONE, 2 D/WK) FOR 104 WK (STUDY DURATION: 105-108 WK), Tumor Site: Type of Lesion: LIVER: NEOPLASTIC NODULE, HEPATOCELLULAR CARCINOMA)?
The carcinogen call was “equivocal”.

For `CC(O)CN(N=O)C(N)=O` (centres undefined), which carcinogen call (Species: HAMSTER, Strain/Sex: SYRIAN/FEMALE, Route: GAVAGE, Dose: 0, 16 MG/ML ((0.2 ML OF A SOLUTION IN ETHYL ACETATE/CORN OIL (1:2)) 1/WK FOR 24 WK (STUDY DURATION: LIFE SPAN), Tumor Site: Type of Lesion: LIVER: HEMANGIOSARCOMA, SPLEEN: HEMANGIOSARCOMA, FORESTOMACH: SQUAMOUS CELL CARCINOMA OR PAPILLOMA, Tumor Site: Type of Lesion: LIVER: HEMANGIOSARCOMA, SPLEEN: HEMANGIOSARCOMA, FORESTOMACH: SQUAMOUS CELL CARCINOMA OR PAPILLOMA) is on record?
Its carcinogen call is “active; positive”.

And the carcinogen call (Species: RAT, Strain/Sex: F344/FEMALE, Route: GAVAGE, Dose: 0, 8 MG/ML (TOTAL DOSE 0; 0.4 MMOL) IN 2 ML ETHYL ACETATE AND CORN OIL (1:2) 2/WK FOR 18 WK (STUDY DURATION: LIFETIME), Dose: 0, 8 MG/ML (TOTAL DOSE 0; 0.4 MMOL) IN 2 ML ETHYL ACETATE AND CORN OIL (1:2) 2/WK FOR 18 WK (STUDY DURATION: LIFETIME), Tumor Site: Type of Lesion: THYMUS: LYMPHOMA)?
Its carcinogen call is “active; positive”.

And the carcinogen call (Species: RAT, Strain/Sex: F344/FEMALE, Route: GAVAGE, Dose: 0, 8 MG/ML IN 0.2 ML ETHYL ACETATE AND CORN OIL 2/WK FOR 18 WK (STUDY DURATION: LIFESPAN), Tumor Site: Type of Lesion: THYMUS: TUMOR)?
The carcinogen call was “active; positive”.

And the carcinogen call (Species: RAT, Strain/Sex: F344/FEMALE, Route: INTRAVESICULAR, Dose: 0, 3.2 MG 2/WK FOR 30 WK (STUDY DURATION: LIFETIME), Tumor Site: Type of Lesion: BLADDER: TUMOR)?
Its carcinogen call is “active; positive”.

And the carcinogen call (Species: RAT, Strain/Sex: F344/MALE, Route: GAVAGE, Dose: 0, 8 MG/ML (TOTAL DOSE 0; 0.4 MMOL) IN 2 ML ETHYL ACETATE AND CORN OIL (1:2) 2/WK FOR 18 WK (STUDY DURATION: LIFETIME), Dose: 0, 8 MG/ML (TOTAL DOSE 0; 0.4 MMOL) IN 2 ML ETHYL ACETATE AND CORN OIL (1:2) 2/WK FOR 18 WK (STUDY DURATION: LIFETIME), Tumor Site: Type of Lesion: THYMUS: LYMPHOMA)?
The carcinogen call was “active; positive”.

What about the carcinogen call (Species: RAT, Strain/Sex: F344/MALE, Route: GAVAGE, Dose: 0, 8 MG/ML IN 0.2 ML ETHYL ACETATE AND CORN OIL 2/WK FOR 18 WK (STUDY DURATION: LIFESPAN), Tumor Site: Type of Lesion: THYMUS: TUMOR) of the same molecule?
The carcinogen call was “active; positive”.

With `C[C@@H]1C[C@H](C)CN(S(=O)(=O)c2ccc(Cl)c(C(=O)O)c2)C1` as the molecule, how does the carcinogen call (Species: RAT, Strain/Sex: F344/MALE, Route: ORAL, Dose: 0.2% IN DIET FOR 7.5 MO, THEN 0.1% FOR 4 MO, THEN 0.05% FOR 4 MO, Tumor Site: Type of Lesion: LIVER: HEPATOCELLULAR CARCINOMA) read?
The carcinogen call was “active; positive”.
